Assay results reported in patent publication US12180198B2, “Ribocil C antibiotics effective for Gram-negative pathogens” (THE BOARD OF TRUSTEES OF THE UNIVERSITY OF ILLINOIS, priority 2018, dated 2024).
≈ marks a conversion by molar mass, not a printed value.

Columns and labels:
E. coli AR-0493 = assay: MIC, micro-dilution broth method; format: cell-based; conditions: Escherichia coli, AR0493; E. coli AR-0493; read-out: MIC
Procedure: (§1) Compounds were evaluated against a panel of Gram-positive and Gram-negative organisms. MIC values were determined using the micro-dilution broth method as outlined by the Clinical and Laboratory Standards Institute (clsi.org/) and are listed in […]. All experiments were performed in biological triplicate.
(§2) Antimicrobial susceptibility tests. Susceptibility testing was performed in biological triplicate, using the micro-dilution broth method as outlined by the Clinical and Laboratory Standards Institute. Bacteria were cultured with cation-adjusted Muller-Hinton broth (Sigma-Aldrich, Cat #90922) in round-bottom 96-well plates (Corning, Cat #3788). Human serum (pooled gender, 0.2 μm filtered) was purchased from BioIVT (Hicksville, NY).

E. cloacae ATCC 29893 = assay: MIC, micro-dilution broth method; format: cell-based; conditions: Enterobacter cloacae, ATCC29893; E. cloacae ATCC 29893; read-out: MIC
Procedure: as §1, §2

E. coli ΔtolC JW5503 = assay: MIC, micro-dilution broth method; format: cell-based; conditions: Escherichia coli
Procedure: as §1, §2

P. aeruginosa PA01 = assay: MIC, micro-dilution broth method; format: cell-based; conditions: Pseudomonas aeruginosa; P. aeruginosa PA01; read-out: MIC
Procedure: as §1, §2

S. aureus ATCC 29213 = assay: MIC, micro-dilution broth method; format: cell-based; conditions: Staphylococcus aureus, ATCC29213, S. aureus ATCC 29213; read-out: MIC
Procedure: as §1, §2

K. pneumoniae S47889 = assay: MIC, micro-dilution broth method; format: cell-based; conditions: Klebsiella pneumoniae; K. pneumoniae S47889; read-out: MIC
Procedure: as §1, §2

A. baumannii W41979 = assay: MIC, micro-dilution broth method; format: cell-based; conditions: Acinetobacter baumannii; A. baumannii W41979; read-out: MIC
Procedure: as §1, §2

E. coli MG1655 = assay: MIC, micro-dilution broth method; format: cell-based; conditions: Escherichia coli; E. coli MG1655; read-out: MIC
Procedure: as §1, §2

E. coli ΔrfaC JW3596 = assay: MIC, micro-dilution broth method; format: cell-based; conditions: Escherichia coli
Procedure: as §1, §2

E. coli BAA-2340 = assay: MIC, micro-dilution broth method; format: cell-based; conditions: Escherichia coli, BAA2340; E. coli BAA-2340; read-out: MIC
Procedure: as §1, §2

[1] = system: Gram-negative ESKAPE pathogens and E. coli; assay: MIC, micro-dilution broth method (text summary); format: cell-based; conditions: Gram-negatives with intact outer membranes
Procedure: FIG. 2. Antimicrobial activity of Debio-1452 and derivatives. MIC values were determined using the micro-dilution broth method as outlined by the Clinical and Laboratory Standards Institute (clsi.org/). All experiments were performed in biological triplicate.
as §2

E. coli FabI = E. coli FabI (Escherichia coli, UniProt P0AEK4); assay: In vitro FabI inhibition assay; format: biochemical; conditions: 20 nM enzyme
E. coli FabI, sequence (P0AEK4 whole entry): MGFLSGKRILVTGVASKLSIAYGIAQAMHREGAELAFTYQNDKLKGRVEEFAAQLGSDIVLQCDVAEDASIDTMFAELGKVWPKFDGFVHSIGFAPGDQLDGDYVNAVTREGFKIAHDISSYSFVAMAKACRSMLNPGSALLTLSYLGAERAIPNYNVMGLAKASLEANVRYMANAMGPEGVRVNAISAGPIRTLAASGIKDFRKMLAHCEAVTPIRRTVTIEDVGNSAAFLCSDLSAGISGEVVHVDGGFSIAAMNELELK
Procedure: Expression and purification of E. coli FabI. E. coli BL21 (DE3) pLysS (Novagen) were transformed with pET15-ecFabI. Overnight culture (10 mL) in LB supplemented with 50 μg/mL ampicillin from single colony was diluted into 1 L LB+50 μg/mL ampicillin. Cells were grown at 37° C., 250 rpm until OD600 reached 0.8. Culture was cooled to 18° C. and induced with 0.5 mM IPTG for 18 h at 18° C. Cells were harvested by centrifugation (5,000×g, 10 min, 4° C.). Cell pellets were flash frozen and store at −20° C. pending purification. Frozen cell pellets were thawed on ice and resuspended (5 mL per gram wet pellet, typically 20-30 mL) with 0.5% CHAPS, 1 mM PMSF, 1 μg/mL leupeptin, 1 μg/mL pepstatin A, and 2 μg/mL aprotinin in binding buffer [20 mM Tris (pH 7.9), 500 mM NaCl, 5 mM imidazole]. Cells were lysed by sonication on ice (30%, 10 s pulse, 20 s rest, 5 min total). Lysate was clarified by centrifugation (35,000×g, 1 h, 4° C.) and filtration through 0.2 μm syringe filter. Lysate was incubated with 5 mL Co-NTA agarose (HisPur cobalt resin, Thermo-Fisher Scientific Cat #89965, pre-equilibrated with binding buffer) for 30 min at 4° C. with gentle rocking. Agarose-containing lysate was transferred to column and flow through discarded. Column was washed with 2 column volumes of binding buffer followed by 10 column volumes of wash buffer [20 mM Tris (pH 7.9), 500 mM NaCl, 60 mM imidazole]. Protein was eluted with 15 mL elution buffer [20 mM Tris (pH 7.9), 500 mM NaCl, 300 mM imidazole]. […] Protein concentration was determined by BCA assay (ThermoFisher Cat #23227).
In vitro FabI inhibition assay. […] Plate was placed in plate-reader (SpectraMax 190, Molecular Devices) under temperature control (25° C.), and temperature was allowed to equilibrate. […] After shaking for 5 s, reaction progress was monitored by absorbance at 340 nm every 15 s for 90 min. Linear portion of reaction progress curve was fit using plate-reader software (SoftMax Pro 7.0). Percent activity was calculated relative to DMSO-only and no-enzyme controls in each plate. […]

## Cc1c(CN(C)C(=O)/C=C/c2cnc3c(c2)CC(NC(=O)OC(C)(C)C)C(=O)N3)oc2ccccc12 (stereo not drawn) [compound 8, tert-butyl(E)-(6-(3-(methyl((3-methylbenzofuran-2-yl)methyl)amino)-3-oxoprop-1-en-1-yl)-2-oxo-1,2,3,4-tetrahydro-1,8-naphthyridin-3-yl)carbamate]
E. coli AR-0493
  MIC: > 32 mg/L
E. cloacae ATCC 29893
  MIC: > 32 mg/L
E. coli ΔtolC JW5503
  MIC: 0.125 mg/L (≈ 0.255 µM)
P. aeruginosa PA01
  MIC: > 32 mg/L
S. aureus ATCC 29213
  MIC: 0.016 mg/L (≈ 0.0326 µM)
K. pneumoniae S47889
  MIC: > 32 mg/L
A. baumannii W41979
  MIC: > 32 mg/L
E. coli MG1655
  MIC: > 32 mg/L
E. coli ΔrfaC JW3596
  MIC: 0.25 mg/L (≈ 0.51 µM)
E. coli BAA-2340
  MIC: > 32 mg/L
[1]
  activity (in words): no activity
E. coli FabI
  inhibition of E. coli FabI in vitro (in words): potent FabI inhibitors
